Assay results reported in patent US4764505A, “Skin treatment composition” (Shiseido Company Ltd., priority 1985, dated 1988).
Where two headings read alike, the source gives them in different places.

Legend:
[1] = Stability with time in 0.1N aqueous sodium hydroxide (absorbancy at 420 nm, FIG. 1); assay type: physicochemical; conditions: 1 mM in 0.1N aqueous sodium hydroxide, 37° C.
Description: Also in FIG. 1, the changes of the absorbancy at 420 nm are shown with the lapse of time.
Hydroquinone, arbutin, or hydroquinone monocaprylate was dissolved at a concentration of 1 mM in a 0.1N aqueous sodium hydroxide solution. The changes in the color of the resultant solutions with the lapse of time at 37° C. were monitored by measuring the absorbancy at 420 nm.

skin [2] = conditions: guinea pig, in vivo
[3] = Stability of neutral cream on storage at 37° C. (discoloration); assay type: physicochemical; conditions: for degree of discoloration: neutral cream of Example 8 (or arbutin replaced), 37° C.
Description: These three samples were stored at a temperature of 37° C. for 1 month, 2 months, and 3 months.

tyrosinase = system: tyrosinase
Description: The depigmenting effects of arbutin and hydroquinone were evaluated by using the inhibition rate of tyrosinase, i.e. polyphenol oxidase for forming melanin. This evaluation method is generally accepted in the art.
The tyrosinase inhibition rate was determined by using DOPA as a substrate as follows:
Preparation of Sample Solution
Aqueous sample solutions having a concentration of hydroquinone or arbutin of 150, 300, or 600 mM were prepared.
Preparation of Substrate Solution
A substrate solution was prepared by dissolving 5 mg of DOPA in 10 ml of distilled water.
Preparation of Enzyme Solution
An enzyme solution was prepared by dissolving 10 mg of tyrosinase (2000 I.U./mg, Sigma Chemical Co.) in 10 ml of distilled water.
A 0.5 ml amount of the substrate solution and 0.9 ml of 1/15M phosphate buffer solution were added to 0.05 ml of the sample. The mixture was incubated at 25° C. for 5 minutes. Then, 0.05 ml of the enzyme solution, which was previously incubated at 25° C. for 5 minutes, was added to the above-incubated sample mixture. The resultant mixture was allowed to react for 1.5 minutes. The absorbancy of the resultant reaction mixture was measured at 475 nm. The tyrosinase inhibition rate was calculated from the following equation: [formula] wherein T: Absorbancy in the case of the inhibitor being added;
T': Absorbancy in the case of the inhibitor being added but the substrate not being added
C: Absorbancy in the case of the inhibitor not being added
C': Absorbancy in the case of neither the inhibitor nor the substrate being added

skin [4] = conditions: guinea pig, in vivo; remark: listed apart in the source

stability with the lapse of time (in words) ([3]; Table 4 conclusion) | degree of discoloration ([3]; 1 month) | degree of discoloration ([3]; 2 months) | degree of discoloration ([3]; 3 months) | inhibition effect compared with hydroquinone (tyrosinase; tyrosinase, Table 1 conclusion in words) | Results (score, erythema and edema criteria) (skin [4]) | Structure (SMILES) | change in color of the solution with lapse of time [1] | irritation (in words) (skin [2]) | number of the guinea pigs causing the irritation (skin [2]) | Inhibition Rate (%) (tyrosinase; concentration 5 mM) | Inhibition Rate (%) (tyrosinase; concentration 10 mM) | Inhibition Rate (%) (tyrosinase; concentration 20 mM) | Results (incidence, animals responding/tested) (skin [4]) | contact sensitivity compared with other depigmenting agents (skin [4]) | order of the contact sensitization potential (skin [4])
excellent | ++ | ++ | ++ | superior to that of hydroquinone | 0 | OC[C@H]1O[C@@H](Oc2ccc(O)cc2)[C@H](O)[C@@H](O)[C@@H]1O [Arbutin, hydroquinone-β-D-glucoside] | the change of appearance was not observed | no irritation | 0 | 55.3 | 62.3 | 67.1 | 0/1 | remarkably low compared with that of other depigmenting agents | Hydroquinone monocaprylate>Hydroquinone>>Arbutin
 | + | + | - |  | 3.4 | CCCCCCCC(=O)Oc1ccc(O)cc1 [Hydroquinone monocaprylate, hydroquinone monocaprylate] | the stability was improved moderate | strong irritation |  |  |  |  | 5/5 |  | Hydroquinone monocaprylate>Hydroquinone>>Arbutin

Structure (SMILES) | stability with the lapse of time (in words) ([3]; Table 4 conclusion) | degree of discoloration ([3]; 1 month) | degree of discoloration ([3]; 2 months) | degree of discoloration ([3]; 3 months) | inhibition effect compared with hydroquinone (tyrosinase; tyrosinase, Table 1 conclusion in words) | Results (score, erythema and edema criteria) (skin [4]) | change in color of the solution with lapse of time [1] | irritation (in words) (skin [2]) | number of the guinea pigs causing the irritation (skin [2]) | Inhibition Rate (%) (tyrosinase; concentration 5 mM) | Inhibition Rate (%) (tyrosinase; concentration 10 mM) | Inhibition Rate (%) (tyrosinase; concentration 20 mM) | Results (incidence, animals responding/tested) (skin [4]) | contact sensitivity compared with other depigmenting agents (skin [4]) | order of the contact sensitization potential (skin [4])
Oc1ccc(O)cc1 [Hydroquinone, hydroquinone] |  | - |  |  |  | 2.6 | rapidly colored brown |  |  | 46.5 | 51.6 | 59.0 | 5/5 |  | Hydroquinone monocaprylate>Hydroquinone>>Arbutin
